Source: US8551937B2, “Peptide having an extending action for half-life of object peptide in plasma” (priority 2008, dated 2013)
Where a SMILES comes first, the peptide text is derived from it. Bridges are numbered along the chain shown (N, C = ends). Where no end group is shown, it is not given here.

Assay: in vivo
Details: male, SD, rat, iv
Method: Changes in CNP immunoreactivity concentration in plasma when the native CNP-22 shown by SEQ ID No: 101 was administered either solely or jointly with neutral endo-peptidase (NEP) inhibitor and compared with changes in CNP immunoreactivity concentration in plasma when native CNP-53 (SEQ ID No: 159) and the chimeric CNP (D) (structure mentioned already) were intravenously administered.
The experiment was conducted using rats where polyethylene tube (PE-50, manufactured by Clay Adams) was previously inserted into thigh artery under the anesthetized condition with Nembutal. In the group where the native CNP-22 was administered either solely or jointly with an NEP inhibitor, the polyethylene tube (PE-10, manufactured by Clay Adams) was also inserted into the thigh vein. As to a test system, male SD rats (Nippon Charles River) of 7 weeks age were used where one group comprised three rats. As to the NEP inhibitor, DL-Thiorphan (manufactured by Sigma) was used and, during the period from 10 minutes before the initiation of administration of the native CNP-22 until 60 minutes after the initiation of the administration where collection of the blood finished, 5% mannitol (100 μL/min/body) or NEP inhibitor (30 μg/100 μL/min/body) was subjected to a constant-speed intravenous administration for 70 minutes using an Infusion Pump (CFV 2100, manufactured by Nippon Koden K. K.). Native CNP-22, native CNP-53 or chimeric CNP (D) was administered into tail vein in a dose of 20 nmol/kg each and blood over the time from before administration and 60 minutes after administration was collected from a polyethylene tube inserted into the thigh artery. To the collected blood were added EDTA (Dojin Laboratories) and aprotinin (manufactured by Bayer) as a stabilizer and an anti-coagulant, respectively and the plasma was separated by means of centrifugal separation. CNP immunoreactivity concentration in the plasma was measured by a competitive radioimmunoassay (RIA). At that time, a rabbit polyclonal antibody (#2) which specifically recognizes a ring part structure which is the common structure for native CNP-22 and native CNP-53 was used as an antibody while, as a labeling compound, ^125I-[Tyr^0] CNP-22 was used.

| Molecule | half-life [min] |
| --- | --- |
| CC[C@H](C)[C@@H]1NC(=O)[C@H](CCCNC(=N)N)NC(=O)[C@H](CC(=O)O)NC(=O)[C@H](CC(C)C)NC(=O)[C@H](CCCCN)NC(=O)[C@H](CC(C)C)NC(=O)CNC(=O)[C@H](Cc2ccccc2)NC(=O)[C@@H](NC(=O)CNC(=O)[C@H](CCCCN)NC(=O)[C@H](CO)NC(=O)[C@H](CC(C)C)NC(=O)CNC(=O)[C@H](CCCCN)NC(=O)[C@H](CCCCN)NC(=O)[C@H](CC(N)=O)NC(=O)[C@H](C)NC(=O)CNC(=O)[C@H](CCCCN)NC(=O)[C@H](Cc2ccc(O)cc2)NC(=O)[C@H](CCCCN)NC(=O)[C@H](CCCNC(=N)N)NC(=O)[C@H](C)NC(=O)[C@H](CC(N)=O)NC(=O)[C@@H]2CCCN2C(=O)[C@H](Cc2c[nH]cn2)NC(=O)[C@H](CCC(=O)O)NC(=O)[C@H](CCC(N)=O)NC(=O)[C@H](CC(C)C)NC(=O)[C@H](CC(C)C)NC(=O)[C@H](CCCNC(=N)N)NC(=O)[C@H](C)NC(=O)[C@H](Cc2c[nH]c3ccccc23)NC(=O)[C@H](C)NC(=O)[C@H](C)NC(=O)[C@H](CCCNC(=N)N)NC(=O)[C@H](CO)NC(=O)[C@H](CCCCN)NC(=O)[C@@H](NC(=O)[C@H](CC(=O)O)NC(=O)[C@@H](NC(=O)[C@H](CCCNC(=N)N)NC(=O)[C@H](CC(C)C)NC(=O)[C@@H](N)CC(=O)O)C(C)C)[C@@H](C)O)CSSC[C@@H](C(=O)O)NC(=O)CNC(=O)[C@H](CC(C)C)NC(=O)CNC(=O)[C@H](CO)NC(=O)[C@H](CCSC)NC(=O)[C@H](CO)NC(=O)CNC1=O [Native CNP-53] | 15.7 |

Same assay, conditions: rat, iv

| Molecule | half-life compared with native CNP-22, native CNP-22 together with NEP inhibitor and native CNP-53 |
| --- | --- |
| CC[C@H](C)[C@@H]1NC(=O)[C@H](CCCNC(=N)N)NC(=O)[C@H](CC(=O)O)NC(=O)[C@H](CC(C)C)NC(=O)[C@H](CCCCN)NC(=O)[C@H](CC(C)C)NC(=O)CNC(=O)[C@H](Cc2ccccc2)NC(=O)[C@@H](NC(=O)CNC(=O)[C@H](CCCCN)NC(=O)[C@H](CO)NC(=O)[C@H](CC(C)C)NC(=O)CN)CSSC[C@@H](C(=O)N[C@H](C(=O)N[C@@H](CCC(N)=O)C(=O)N[C@@H](CCC(N)=O)C(=O)N[C@@H](CCCNC(=N)N)C(=O)N[C@@H](CCCCN)C(=O)N[C@@H](CCC(=O)O)C(=O)N[C@@H](CO)C(=O)N[C@@H](CCCCN)C(=O)N[C@@H](CCCCN)C(=O)N2CCC[C@H]2C(=O)N2CCC[C@H]2C(=O)N[C@@H](C)C(=O)N[C@@H](CCCCN)C(=O)N[C@@H](CC(C)C)C(=O)N[C@@H](CCC(N)=O)C(=O)N2CCC[C@H]2C(=O)N[C@@H](CCCNC(=N)N)C(=O)O)C(C)C)NC(=O)CNC(=O)[C@H](CC(C)C)NC(=O)CNC(=O)[C@H](CO)NC(=O)[C@H](CCSC)NC(=O)[C@H](CO)NC(=O)CNC1=O [Chimeric CNP (D)] (H-GLSKGCFGLKLDRIGSMSGLGCVQQRKESKKPPAKLQPR-OH; disulfide 6-22; N-terminus and C-terminus assumed) | longer half-life |

Assay: in vivo
Details: male, SD, rat, iv, 10 nmol/kg
Method: The experiment was carried out using rats into which polyethylene tube (PE-50 manufactured by Clay Adams) was previously inserted into thigh artery under an anesthetized condition with Nembutal. As to a test system, male SD strain rats (Nippon Charles River) of 7 weeks age were used where one group comprised 3 rats. Native CNP-22 or chimeric CNP in a dose of 10 nmol/kg was administered into tail vein of the rat and the blood before the administration and until 60 minutes after the administration was collected by a polyethylene tube inserted into the thigh artery. To the collected blood were added EDTA (manufactured by Dojin Laboratories) and aprotinin (manufactured by Bayer) as a stabilizer and an anti-coagulant, respectively and the plasma was separated therefrom by centrifugal separation. CNP immunoreactivity concentration in plasma was measured by a competitive radioimmunoassay (RIA). At that time, a rabbit polyclonal antibody (#2) which specifically recognizes the ring partial structure of the native CNP-22 was used as an antibody and, as a labeled compound, ^125I-[Tyr^0] CNP was used.

| Molecule | half-life [min] |
| --- | --- |
| CC[C@H](C)[C@@H]1NC(=O)[C@H](CCCNC(=N)N)NC(=O)[C@H](CC(=O)O)NC(=O)[C@H](CC(C)C)NC(=O)[C@H](CCCCN)NC(=O)[C@H](CC(C)C)NC(=O)CNC(=O)[C@H](Cc2ccccc2)NC(=O)[C@@H](N)CSSC[C@@H](C(=O)N[C@H](C(=O)N[C@@H](CCC(N)=O)C(=O)N[C@@H](CCC(N)=O)C(=O)N[C@@H](CCCNC(=N)N)C(=O)N[C@@H](CCCCN)C(=O)N[C@@H](CCC(=O)O)C(=O)N[C@@H](CO)C(=O)N[C@@H](CCCCN)C(=O)N[C@@H](CCCCN)C(=O)N2CCC[C@H]2C(=O)N2CCC[C@H]2C(=O)N[C@@H](C)C(=O)N[C@@H](CCCCN)C(=O)N[C@@H](CC(C)C)C(=O)N[C@@H](CCC(N)=O)C(=O)N2CCC[C@H]2C(=O)N[C@@H](CCCNC(=N)N)C(=O)O)C(C)C)NC(=O)CNC(=O)[C@H](CC(C)C)NC(=O)CNC(=O)[C@H](CO)NC(=O)[C@H](CCSC)NC(=O)[C@H](CO)NC(=O)CNC1=O [Chimeric CNP (C)] (H-CFGLKLDRIGSMSGLGCVQQRKESKKPPAKLQPR-OH; disulfide 1-17; N-terminus and C-terminus assumed) | 15 |
| CC[C@H](C)[C@@H]1NC(=O)[C@H](CCCNC(=N)N)NC(=O)[C@H](CC(=O)O)NC(=O)[C@H](CC(C)C)NC(=O)[C@H](CCCCN)NC(=O)[C@H](CC(C)C)NC(=O)CNC(=O)[C@H](Cc2ccccc2)NC(=O)[C@@H](NC(=O)CNC(=O)[C@H](CCCCN)NC(=O)[C@H](CO)NC(=O)[C@H](CC(C)C)NC(=O)CN)CSSC[C@@H](C(=O)N[C@H](C(=O)N[C@@H](CCC(N)=O)C(=O)N[C@@H](CCC(N)=O)C(=O)N[C@@H](CCCNC(=N)N)C(=O)N[C@@H](CCCCN)C(=O)N[C@@H](CCC(=O)O)C(=O)N[C@@H](CO)C(=O)N[C@@H](CCCCN)C(=O)N[C@@H](CCCCN)C(=O)N2CCC[C@H]2C(=O)N2CCC[C@H]2C(=O)N[C@@H](C)C(=O)N[C@@H](CCCCN)C(=O)N[C@@H](CC(C)C)C(=O)N[C@@H](CCC(N)=O)C(=O)N2CCC[C@H]2C(=O)N[C@@H](CCCNC(=N)N)C(=O)O)C(C)C)NC(=O)CNC(=O)[C@H](CC(C)C)NC(=O)CNC(=O)[C@H](CO)NC(=O)[C@H](CCSC)NC(=O)[C@H](CO)NC(=O)CNC1=O [Chimeric CNP (D)] (H-GLSKGCFGLKLDRIGSMSGLGCVQQRKESKKPPAKLQPR-OH; disulfide 6-22; N-terminus and C-terminus assumed) | 20.3 |
| CC[C@H](C)[C@@H]1NC(=O)[C@H](CCCNC(=N)N)NC(=O)[C@H](CC(=O)O)NC(=O)[C@H](CC(C)C)NC(=O)[C@H](CCCCN)NC(=O)[C@H](CC(C)C)NC(=O)CNC(=O)[C@H](Cc2ccccc2)NC(=O)[C@@H](NC(=O)[C@H](CCCNC(=N)N)NC(=O)[C@@H]2CCCN2C(=O)[C@H](CCC(N)=O)NC(=O)[C@H](CC(C)C)NC(=O)[C@H](CCCCN)NC(=O)[C@H](C)NC(=O)[C@@H]2CCCN2C(=O)[C@@H]2CCCN2C(=O)[C@H](CCCCN)NC(=O)[C@H](CCCCN)NC(=O)[C@H](CO)NC(=O)[C@H](CCC(=O)O)NC(=O)[C@H](CCCCN)NC(=O)[C@H](CCCNC(=N)N)NC(=O)[C@H](CCC(N)=O)NC(=O)[C@H](CCC(N)=O)NC(=O)[C@@H](N)C(C)C)CSSC[C@@H](C(=O)O)NC(=O)CNC(=O)[C@H](CC(C)C)NC(=O)CNC(=O)[C@H](CO)NC(=O)[C@H](CCSC)NC(=O)[C@H](CO)NC(=O)CNC1=O [Chimeric CNP (G)] (H-VQQRKESKKPPAKLQPRCFGLKLDRIGSMSGLGC-OH; disulfide 18-34; N-terminus and C-terminus assumed) | 17.8 |
| CC[C@H](C)[C@@H]1NC(=O)[C@H](CCCNC(=N)N)NC(=O)[C@H](CC(=O)O)NC(=O)[C@H](CC(C)C)NC(=O)[C@H](CCCCN)NC(=O)[C@H](CC(C)C)NC(=O)CNC(=O)[C@H](Cc2ccccc2)NC(=O)[C@@H](NC(=O)[C@@H](NC(=O)[C@H](CCC(N)=O)NC(=O)[C@H](CCC(N)=O)NC(=O)[C@H](CCCNC(=N)N)NC(=O)[C@H](CCCCN)NC(=O)[C@H](CCC(=O)O)NC(=O)[C@H](CO)NC(=O)[C@H](CCCCN)NC(=O)[C@H](CCCCN)NC(=O)[C@@H]2CCCN2C(=O)[C@@H]2CCCN2C(=O)[C@H](C)NC(=O)[C@H](CCCCN)NC(=O)[C@H](CC(C)C)NC(=O)[C@H](CCC(N)=O)NC(=O)[C@@H]2CCCN2C(=O)[C@@H](N)CCCNC(=N)N)C(C)C)CSSC[C@@H](C(=O)O)NC(=O)CNC(=O)[C@H](CC(C)C)NC(=O)CNC(=O)[C@H](CO)NC(=O)[C@H](CCSC)NC(=O)[C@H](CO)NC(=O)CNC1=O [Chimeric CNP (H)] (H-RPQLKAPPKKSEKRQQVCFGLKLDRIGSMSGLGC-OH; disulfide 18-34; N-terminus and C-terminus assumed) | 14.9 |
| CC[C@H](C)[C@@H]1NC(=O)[C@H](CCCNC(=N)N)NC(=O)[C@H](CC(=O)O)NC(=O)[C@H](CC(C)C)NC(=O)[C@H](CCCCN)NC(=O)[C@H](CC(C)C)NC(=O)CNC(=O)[C@H](Cc2ccccc2)NC(=O)[C@@H](N)CSSC[C@@H](C(=O)N[C@H](C(=O)N[C@@H](CCC(N)=O)C(=O)N[C@@H](CCC(N)=O)C(=O)N[C@@H](CCCNC(=N)N)C(=O)N[C@@H](CCCCN)C(=O)N[C@@H](CCC(=O)O)C(=O)N[C@@H](CO)C(=O)N[C@@H](CCCCN)C(=O)N[C@@H](CCCCN)C(=O)N2CCC[C@H]2C(=O)N2CCC[C@H]2C(=O)N[C@@H](C)C(=O)N[C@@H](CCCCN)C(=O)N[C@@H](CC(C)C)C(=O)N[C@@H](CCC(N)=O)C(=O)N2CCC[C@H]2C(=O)N[C@@H](CCCNC(=N)N)C(N)=O)C(C)C)NC(=O)CNC(=O)[C@H](CC(C)C)NC(=O)CNC(=O)[C@H](CO)NC(=O)[C@H](CCSC)NC(=O)[C@H](CO)NC(=O)CNC1=O [Chimeric CNP (I)] (H-CFGLKLDRIGSMSGLGCVQQRKESKKPPAKLQPR-NH2; disulfide 1-17; N-terminus assumed) | 14.5 |
| RPQLKAPPKKSEKRQQVCFGLKLDRIGSMSGLGCVQQRKESKKPPAKLQPR (disulfide 18-34) [Chimeric CNP (F)] | 17.4 |
| VQQRKESKKPPAKLQPRCFGLKLDRIGSMSGLGCVQQRKESKKPPAKLQPR (disulfide 18-34) [Chimeric CNP (E)] | 18.4 |
